Measurements reported in PubChem BioAssay AID2060496 (Molecular Pharmacology Branch, DTP, NCI, 2025).
Where “and” joins values, the source holds several entries; their conditions need not be identical. Equal values may be shown once.

System: 276233-004-R-J1-PDC complex spheroid viability
Experiment: Anticancer human tumor 276233-004-R-J1-PDC patient-derived colon adenocarcinoma cell line growth inhibition [GQUAD]
Conditions: for viability, T/C: stronger effect = lower value
Excerpt: DNA G-quadruplex Stabilizer Agents in Combinations in Complex Spheroids
A high-throughput screen of multi-cell type tumor spheroids was designed to identify active combinations of DNA G-quadruplex stabilizer agents and targeted small molecules. Complex spheroids include a stromal component modeled by human endothelial cells (HUVEC) and fibroblasts modeled by human mesenchymal stem cells (MSCs). The concentration ranges selected for each drug and investigational agent were based upon clinically achievable concentrations if the clinical Cmax of the agent was known.
Compounds. The drugs and investigational agents: pidnarulex (CX-5461; NSC782164), APTO-253 (NSC789042), BRACO-19 (NSC847499), peposertib (NSC802822), ceralasertib (NSC780249), elimusertib (NSC800525), camonsertib (NSC841442), AZD-1390 (NSC803789), olaparib (NSC753686), talazoparib (NSC767125), ART-558 (NSC835418), sotorasib (NSC818433), MRTX-1133 (NSC836407), SN-38 (NSC673596), topotecan (NSC609699), etoposide (NSC141540), doxorubicin (NSC123127), gemcitabine (NSC613327), 5-fluorouracil (NSC19893), paclitaxel (NSC125973), vemurafenib (NSC761431), panobinostat (NSC761190), R-306465 (JNJ-16241199; NSC773264), adavosertib (NSC754352), TP-3654 (NSC805149), carboplatin (NSC241240), KSQ-4279 (NSC840948), and staurosporine (NSC755774) were obtained from the National Cancer Institute (NCI) Developmental Therapeutics Program Chemical Repository (34). The FDA-approved anticancer drug set is available from the NCI Developmental Therapeutics Program. […] The stock solutions were prepared in dimethyl sulfoxide (DMSO, Sigma-Aldrich, St. Louis, MO, cat. D2650) at 800-fold the tested concentration and stored at -70 degrees C prior to their use. All drugs and investigational agents were tested over a range starting from a high concentration at or near the clinical Cmax and decreasing in half-log increments. If the clinical Cmax for an agent had not been determined, the highest concentration tested was 10 microM.
2.3 Cell Culture. All cells were maintained in an incubator at 37 degrees C and 5% CO2 with 95% humidity. The PDC lines were cultured according to standard operating procedures established by the NCI PDMR. All PDCs were thawed and cultured in Matrigel-coated flasks prepared with a working solution of 1X Ham's F-12 nutrient mix, without supplementation (Invitrogen, cat. 11765054), 100 U/mL penicillin-streptomycin (Invitrogen, cat. 15140122), and 2.5% Matrigel (Corning Inc., cat. 354248) for the first three passages. The 857933-349-R-J2-PDC line was cultured in 6C/Colon 1B media, which includes advanced DMEM/F-12 (Thermo Fisher Scientific, cat. 12634028), 10 mM HEPES (Thermo Fisher Scientific, cat. 15630080), 1X GlutaMAX supplement (Thermo Fisher Scientific, cat. 35050061), 0.1 mg/mL primocin (InvivoGen, cat. ant-pm-2), 10% defined fetal bovine serum, heat inactivated (HyClone Laboratories Inc., cat. SH30070.03HI), 50% L-WRN conditioned media (ATCC, cat. CRL-3276), 1.25 mM N-Acetyl-L-cysteine (Sigma-Aldrich, cat. A9165), 10 mM nicotinamide (Sigma-Aldrich, cat. N0636), 1X B-27 supplement (Thermo Fisher Scientific, cat. 17504044), 1X N-2 supplement (Thermo Fisher Scientific, cat. 17502048), 10 microM Y-27632 dihydrochloride (Tocris Bioscience, cat. 1254), and 50 ng/mL human EGF recombinant protein (Thermo Fisher Scientific, cat. PHG0311). The 485176-168-R4-J1-PDC line was cultured in Panc media, which includes all 6C/Colon 1B media components plus 100 ng/mL human FGF-10 (Thermo Fisher Scientific, cat. 100-26), 500 nM SB-431542 (Selleckchem, cat. S1067), and gastrin (Tocris, cat. 3006).
[…]

[1] = curve of first compound, second compound 0.0316 µM
[2] = curve of first compound, second compound 0.1 µM
[3] = curve of first compound, second compound 0.316 µM
[4] = curve of first compound, second compound 1 µM
[5] = curve of first compound, second compound 3.16 µM
[6] = curve of first compound, second compound 10 µM
[7] = second compound 0.0316 µM, first compound 0.0316 µM
[8] = second compound 0.0316 µM, first compound 0.316 µM
[9] = second compound 0.1 µM, first compound 0.0316 µM
[10] = second compound 0.1 µM, first compound 0.316 µM
[11] = second compound 0.316 µM, first compound 0.0316 µM
[12] = second compound 0.316 µM, first compound 0.316 µM
[13] = second compound 1 µM, first compound 0.0316 µM
[14] = second compound 1 µM, first compound 0.316 µM
[15] = second compound 3.16 µM, first compound 0.0316 µM
[16] = second compound 3.16 µM, first compound 0.316 µM
[17] = second compound 10 µM, first compound 0.0316 µM
[18] = second compound 10 µM, first compound 0.316 µM
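Further: spheroids exposed to drugs for seven days.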
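Wherever viability, T/C is given: 100% = DMSO vehicle control viability.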

Work on `CCCS(=O)(=O)Nc1ccc(F)c(C(=O)c2c[nH]c3ncc(-c4ccc(Cl)cc4)cc23)c1F` + Cc1[nH]c2ccc(F)cc2c1-c1nc2c3cccnc3c3ncccc3c2[nH]1 yielded an IC50 [1] greater than 10000 nM, an IC50 [2] greater than 10000 nM and an IC50 [3] greater than 10000 nM. For the same compound, the IC50 [4] was less than 31.6 nM, the IC50 [5] was less than 31.6 nM and the IC50 [6] was less than 31.6 nM. It also gave a viability, T/C [7] of 99.6%, a viability, T/C (second compound 0.0316 µM, first compound 0.1 µM) of 82.8% and a viability, T/C [8] of 83.3%. For the same compound, the viability, T/C (second compound 0.0316 µM, first compound 1 µM) was 101%, the viability, T/C (second compound 0.0316 µM, first compound 3.16 µM) was 78.8% and the viability, T/C (second compound 0.0316 µM, first compound 10 µM) was 50.8%. For the same compound, the viability, T/C [9] was 95.7%, the viability, T/C (second compound 0.1 µM, first compound 0.1 µM) was 81.7% and the viability, T/C [10] was 80.7%. For the same compound, the viability, T/C (second compound 0.1 µM, first compound 1 µM) was 78.5%, the viability, T/C (second compound 0.1 µM, first compound 3.16 µM) was 59.7% and the viability, T/C (second compound 0.1 µM, first compound 10 µM) was 61.2%. For the same compound, the viability, T/C [11] was 74.3%, the viability, T/C (second compound 0.316 µM, first compound 0.1 µM) was 71.2% and the viability, T/C [12] was 63.9%. It also gave a viability, T/C (second compound 0.316 µM, first compound 1 µM) of 65.3%, a viability, T/C (second compound 0.316 µM, first compound 3.16 µM) of 55% and a viability, T/C (second compound 0.316 µM, first compound 10 µM) of 61.9%. The viability, T/C [13] was 52.9%, the viability, T/C (second compound 1 µM, first compound 0.1 µM) was 41.3% and the viability, T/C [14] was 44.2%. It also gave a viability, T/C (second compound 1 µM, first compound 1 µM) of 50.1%, a viability, T/C (second compound 1 µM, first compound 3.16 µM) of 61.9% and a viability, T/C (second compound 1 µM, first compound 10 µM) of 37.7%. The viability, T/C [15] was 18.2%, the viability, T/C (second compound 3.16 µM, first compound 0.1 µM) was 12.9% and the viability, T/C [16] was 27.3%. It also gave a viability, T/C (second compound 3.16 µM, first compound 1 µM) of 15.5%, a viability, T/C (second compound 3.16 µM, first compound 3.16 µM) of 20.9% and a viability, T/C (second compound 3.16 µM, first compound 10 µM) of 13.1%. The viability, T/C [17] was 31.9%, the viability, T/C (second compound 10 µM, first compound 0.1 µM) was 35.4% and the viability, T/C [18] was 42.6%. It also gave a viability, T/C (second compound 10 µM, first compound 1 µM) of 30.3%, a viability, T/C (second compound 10 µM, first compound 3.16 µM) of 41.4% and a viability, T/C (second compound 10 µM, first compound 10 µM) of 27.5%.

`Cc1[nH]c2ccccc2c1CCNCc1ccc(/C=C/C(=O)NO)cc1` + Cc1cnc(CNC(=O)c2c(=O)c3ccc(N4CCCN(C)CC4)nc3n3c2sc2ccccc23)cn1 was tested, and the IC50 [1] was 211 nM, the IC50 [2] was 144 nM and the IC50 [3] was 127 nM. For the same compound, the IC50 [4] was 62.4 nM, the IC50 [5] was 46.9 nM and the IC50 [6] was 40.5 nM. It also gave a viability, T/C (second compound 0.0316 µM, first compound 0.000999 µM) of 90.4%, a viability, T/C (second compound 0.0316 µM, first compound 0.00316 µM) of 93% and a viability, T/C (second compound 0.0316 µM, first compound 0.00999 µM) of 87.7%. For the same compound, the viability, T/C [7] was 82.3%, the viability, T/C (second compound 0.0316 µM, first compound 0.0999 µM) was 75.7% and the viability, T/C [8] was 36.6%. The viability, T/C (second compound 0.1 µM, first compound 0.000999 µM) was 80.1%, the viability, T/C (second compound 0.1 µM, first compound 0.00316 µM) was 74.1% and the viability, T/C (second compound 0.1 µM, first compound 0.00999 µM) was 92.7%. The viability, T/C [9] was 101%, the viability, T/C (second compound 0.1 µM, first compound 0.0999 µM) was 57.8% and the viability, T/C [10] was 33.2%. For the same compound, the viability, T/C (second compound 0.316 µM, first compound 0.000999 µM) was 88%, the viability, T/C (second compound 0.316 µM, first compound 0.00316 µM) was 99.1% and the viability, T/C (second compound 0.316 µM, first compound 0.00999 µM) was 102%. It also gave a viability, T/C [11] of 74.3%, a viability, T/C (second compound 0.316 µM, first compound 0.0999 µM) of 57.9% and a viability, T/C [12] of 29.6%. For the same compound, the viability, T/C (second compound 1 µM, first compound 0.000999 µM) was 71.5%, the viability, T/C (second compound 1 µM, first compound 0.00316 µM) was 92% and the viability, T/C (second compound 1 µM, first compound 0.00999 µM) was 88.1%. For the same compound, the viability, T/C [13] was 70.9%, the viability, T/C (second compound 1 µM, first compound 0.0999 µM) was 35.2% and the viability, T/C [14] was 19.1%. It also gave a viability, T/C (second compound 3.16 µM, first compound 0.000999 µM) of 71.6%, a viability, T/C (second compound 3.16 µM, first compound 0.00316 µM) of 85.8% and a viability, T/C (second compound 3.16 µM, first compound 0.00999 µM) of 68%. For the same compound, the viability, T/C [15] was 62.3%, the viability, T/C (second compound 3.16 µM, first compound 0.0999 µM) was 29.2% and the viability, T/C [16] was 9.8%. For the same compound, the viability, T/C (second compound 10 µM, first compound 0.000999 µM) was 70.9%, the viability, T/C (second compound 10 µM, first compound 0.00316 µM) was 60.8% and the viability, T/C (second compound 10 µM, first compound 0.00999 µM) was 73.2%. The viability, T/C [17] was 54.7%, the viability, T/C (second compound 10 µM, first compound 0.0999 µM) was 26.4% and the viability, T/C [18] was 4.45%.

`CC[C@@]1(O)C(=O)OCc2c1cc1n(c2=O)Cc2cc3c(CN(C)C)c(O)ccc3nc2-1` was tested, and the viability, T/C (compound 0.000999 µM) was 102% and 92.8% and 107%, the viability, T/C (compound 0.00316 µM) was 95.6% and 106% and 94.4% and the viability, T/C (compound 0.00999 µM) was 89.3% and 96.7% and 96.9%. The viability, T/C (compound 0.0316 µM) was 97.6% and 112% and 79.8%, the viability, T/C (compound 0.0999 µM) was 97.6% and 102% and 99.8% and the viability, T/C (compound 0.316 µM) was 90.9% and 107% and 98.6%. For the same compound, the IC50 (curve of compound) was greater than 316 nM.

`C#Cc1c(F)ccc2cc(O)cc(-c3ncc4c(N5CC6CCC(C5)N6)nc(OCC56CCCN5CC(F)C6)nc4c3F)c12` (stereo not drawn) was tested, and the viability, T/C (compound 0.0316 µM) was 92.7% and 70.8% and 78.7%, the viability, T/C (compound 0.1 µM) was 73.1% and 96.4% and 89.9% and the viability, T/C (compound 0.316 µM) was 66.8% and 78.3% and 71.8%. For the same compound, the viability, T/C (compound 1 µM) was 87.9% and 83.5% and 69.9%, the viability, T/C (compound 3.16 µM) was 86.9% and 49.7% and 45.9% and the viability, T/C (compound 10 µM) was 68.2% and 36.4% and 44.5%. For the same compound, the IC50 (curve of compound) was > 10000 nM and 3140 nM and 2930 nM.
